In this experiment the target is Potassium voltage-gated channel subfamily KQT member 2 (Homo sapiens, UniProt O43526). Put plainly: SyncroPatch 384 (Nanion) High Throughput Electrophysiology Assay. The source says:
Solutions were of the following composition:Earle's balanced salt solution (in mM): 135 NaCl, 5.4 KCl, 5 Glucose, 2 CaCl2), 1 MgCl2, 5 HEPES, pH 7.4. Seal enhancer solution (in mM): 90 NaCl, 3 KCl, 35 CaCl2), 10 MgCl2, 10 HEPES, pH 7.4. Extracellular recording solution (in mM): 71 NaCl, 70 NMDG, 13 KCl, 5 Glucose, 2 CaCl2), 1 MgCl2, 10 HEPES, pH 7.4. Intracellular recording solution (in mM): 130 KF, 20 KCl, 4 EGTA, 10 HEPES, 2 EDTA, 0.01 Escin, pH 7.2.

Chain of Potassium voltage-gated channel subfamily KQT member 2 (O43526 whole entry): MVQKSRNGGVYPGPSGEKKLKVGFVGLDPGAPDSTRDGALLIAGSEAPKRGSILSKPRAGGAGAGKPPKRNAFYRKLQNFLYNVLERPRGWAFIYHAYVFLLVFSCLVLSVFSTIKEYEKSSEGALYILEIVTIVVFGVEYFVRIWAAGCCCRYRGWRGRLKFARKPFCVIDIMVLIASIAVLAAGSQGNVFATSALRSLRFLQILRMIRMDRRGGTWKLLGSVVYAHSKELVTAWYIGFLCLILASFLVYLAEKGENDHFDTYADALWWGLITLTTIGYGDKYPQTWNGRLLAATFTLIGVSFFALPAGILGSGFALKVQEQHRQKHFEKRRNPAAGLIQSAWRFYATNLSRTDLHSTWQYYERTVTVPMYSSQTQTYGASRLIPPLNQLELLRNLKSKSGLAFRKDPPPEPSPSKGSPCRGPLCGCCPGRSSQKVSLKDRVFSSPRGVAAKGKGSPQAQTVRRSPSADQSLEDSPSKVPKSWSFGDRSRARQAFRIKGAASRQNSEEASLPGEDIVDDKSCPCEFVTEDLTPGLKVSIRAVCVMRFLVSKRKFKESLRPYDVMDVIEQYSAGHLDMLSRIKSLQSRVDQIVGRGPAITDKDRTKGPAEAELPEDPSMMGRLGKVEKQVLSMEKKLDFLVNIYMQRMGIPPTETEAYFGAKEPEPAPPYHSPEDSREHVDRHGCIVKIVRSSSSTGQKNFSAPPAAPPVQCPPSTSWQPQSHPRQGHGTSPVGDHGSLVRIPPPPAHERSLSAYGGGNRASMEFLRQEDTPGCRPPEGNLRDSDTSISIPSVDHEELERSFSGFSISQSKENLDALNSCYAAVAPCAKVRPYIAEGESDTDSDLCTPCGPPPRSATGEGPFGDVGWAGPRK

In the case of `CC(NC(=O)NC12CC(F)(C1)C2)c1cccc(OC(F)F)c1` (stereo unspecified) [US20250002452, Example 38], the EC50 (usually the concentration needed to bring the measured effect to its halfway point) was 180 nM.
